Laboratory results: patent EP4129284B1, “SERTACONAZOL FOR PROVIDING A SPORISTATIC AND/OR SPORICIDAL EFFECT” (Dr. Pfleger Arzneimittel GmbH, priority 2021, dated 2023)

Columns and labels:
[1] = system: S. brevicaulis; experiment: Full skin model infected with spores, treatment, histology (PAS-staining); assay type: cell-based, Scopulariopsis brevicaulis; settings: 48 h and 72 h, sertaconazol 100, ciclopiroxolamin 400, terbinafin 100 µg/mL, Fig. 6, stated as 'the same applies' as for E. floccosum
Excerpt: (§1) For an application in vivo, there is the additional requirement for the antimycotic substances to evoke a targeted antimycotic activity in the presence of human cells. Thus, 3D-cell-cultures such as full skin models are used to simulate the in vivo conditions. Such full skin models are for example described in Reddersen K, Wiegand C, Elsner P, Hipler UC. Three-dimensional human skin model infected with Staphylococcus aureus as a tool for evaluation of bioactivity and biocompatibility of antiseptics. Int J Antimicrob Agents. 2019; 54(3):283-291; Wiegand C, Fink S, Beier O, Horn K, Pfuch A, Schimanski A, Grünler B, Hipler UC, Elsner P. Dose- and Time-Dependent Cellular Effects of Cold Atmospheric Pressure Plasma Evaluated in 3D Skin Models. Skin Pharmacol Physiol. 2016;29(5):257-265. Particularly, such full skin models are made of a collagen matrix, which is colonized with primary human fibroblasts, and a fully differentiated epidermis made of primary human keratinocytes. For the experiments, the model is infected in vitro with spores, such that a determination of the sporistatic or sporicidal influence of the substances to be examined at in vivo relevant conditions is allowed. Compared to a 2D-model, the 3D full skin model has the advantage that the cells are in their natural three-dimensional surrounding and show a corresponding behaviour. Such, the antimycotic and sporistatic or sporicidal effects can be examined in situ and in the presence of human cells.
(§2) The spore suspensions and the solutions of sertaconazol, ciclopiroxolamin and terbinafin were prepared as in Example 1, wherein the respective test concentrations were obtained by diluting these solutions in ultrapure water (WFI; Fresenius Kabi) instead of SGB (Merck). Full skin models were produced as previously described [Reddersen K, Wiegand C, Elsner P, Hipler UC. […] 2019; 54(3):283-291; Wiegand C, Fink S, Beier O, Horn K, Pfuch A, Schimanski A, Grünler B, Hipler UC, Elsner P. Dose- and Time-Dependent Cellular Effects of Cold Atmospheric Pressure Plasma Evaluated in 3D Skin Models. […]

[2] = system: E. floccosum; experiment: Full skin model infected with spores, treatment, histology; assay type: cell-based, Epidermophyton floccosum; settings: 48 h and 72 h, sertaconazol 0.010, ciclopiroxolamin 400, terbinafin 0.200 µg/mL
Excerpt: as §1, §2

[3] = system: C. albicans; experiment: Full skin model infected with spores, treatment, histology (PAS-staining); assay type: cell-based, Candida albicans; settings: over 72 h, sertaconazol 800, ciclopiroxolamin 400, terbinafin 1600 µg/mL, Fig. 7
Excerpt: as §1, §2

SMILES	outgrowth of S. brevicaulis [1]	outgrowth of E. floccosum [2]	outgrowth of C. albicans [3]
Clc1ccc(C(Cn2ccnc2)OCc2csc3c(Cl)cccc23)c(Cl)c1 (stereo not drawn) [Sertaconazol, sertaconazol]	inhibited	inhibited	clearly reduced
CN(C/C=C/C#CC(C)(C)C)Cc1cccc2ccccc12 [Terbinafin, terbinafin]	only reduced	only reduced	much lower effect
Cc1cc(C2CCCCC2)n(O)c(=O)c1 [Ciclopiroxolamin, ciclopiroxolamin]	only reduced	only reduced	much lower effect
